A value given as a limit tells only on which side of the number the result lay.

MIC data for seven compounds are collected here from patent publication US11648248B1 (King Abdulaziz University, priority 2022, dated 2023).

Common to all, as to experiment: MIC of active MY compounds
Type in all cases: cell-based

In experiment [1] the test system is Vancomycin-resistant Staphylococcus aureus (VRSA12). Particulars: read-out: MIC VRSA12. An excerpt: (§1) Based upon the initial results obtained, the active compounds were further screened against additional clinical isolates of methicillin-sensitive S. aureus (MSSA), methicillin-resistant S. aureus (MRSA), vancomycin-resistant S. aureus (VRSA), Staphylococcus epidermidis, vancomycin-resistant Enterococcus faecium (VRE), vancomycin-resistant Enterococcus faecalis (VRE) and Streptococcus pneumoniae, as presented in Table 2. Additionally, we examined whether the compounds were bacteriostatic (inhibit bacteria from growing) or bactericidal (kill bacteria) by determining the minimum bactericidal concentration (MBC). The MBC was determined by plating 5 μL from each well where no growth was present (in the MIC plates) onto tryptic soya agar plates and incubating plates at 37° C. for 24 hours. The MBC was categorized as the lowest concentration that generated a 99.9% reduction in bacterial colony-forming units (Table 3).
(§2) The minimum inhibitory concentrations (MICs) of the tested compounds and control drugs; linezolid, vancomycin, gentamicin (antibiotics) and fluconazole and 5-fluorocytosine (5-FC) (antifungal drugs) were determined using the broth microdilution method, according to guidelines outlined by the Clinical and Laboratory Standards Institute (CLSI)^1, 2, 3 against clinically-relevant bacterial (methicillin-resistant Staphylococcus aureus (MRSA), Escherichia coli and Clostridium difficile strains) and fungal (Candida albicans) strain. S. aureus and E. coli were grown aerobically overnight on tryptone soy agar plates at 37° C. C. difficile was grown anaerobically on brain heart infusion supplemented agar at 37° C. for 48 hours. C. albicans was grown aerobically overnight on yeast peptone dextrose (YPD) agar plate at 35° C. Afterwards, a bacterial solution equivalent to 0.5 McFarland standard was prepared and diluted in cation-adjusted Mueller-Hinton broth (CAMHB) (for S. aureus and E. coli) to achieve a bacterial concentration of about 5×10^5 CFU/mL. C. difficile was diluted in brain heart infusion supplemented broth, supplemented with yeast extract, hemin and vitamin K to achieve a bacterial concentration of about 5×10^5 CFU/mL. C. albicans was diluted in Roswell Park Memorial Institute (RPMI 1640) medium with glutamine and without bicarbonate (GIBCO by Life Technologies, Green Island, N.Y., USA) which was buffered to pH 7.0 with 0.165 M of [3-(N-morpholino) propanesulfonic acid] (MOPS) (dot scientific inc., Burton, Mich., USA) to achieve a fungal concentration of about 1.5×10^3 CFU/mL. Compounds and control drugs were added in the first row of the 96-well plates and serially diluted with the corresponding media containing bacteria/fungi. Plates were then, incubated aerobically at 37° C. for 18-20 hours (for S. aureus and E. coli). C. difficile was incubated anaerobically at 37° C. for 48 hours. C. albicans was incubated aerobically at 37° C. for 24 hours.

For experiment [2], the system named is Vancomycin-resistant Enterococcus faecium ATCC-700221 (VRE ATCC-700221). Particulars: read-out: MIC VRE ATCC-700221.
Excerpt: as §1, §2

The subject of experiment [3] is Methicillin-sensitive Staphylococcus aureus (MSSA NRS-107). Particulars: read-out: MIC MSSA NRS-107.
Excerpt: as §1, §2

Experiment [4] has as its system Cephalosporin-resistant Streptococcus pneumoniae ATCC-15916. Particulars: ATCC15916, read-out: MIC S. pneumoniae ATCC-15916.
Excerpt: as §1, §2

Experiment [5] concerns Cephalosporin-resistant Streptococcus pneumoniae ATCC-700677. Particulars: ATCC700677, read-out: MIC S. pneumoniae ATCC 700677.
Excerpt: as §1, §2

Experiment [6] has as its system Methicillin-resistant Staphylococcus aureus (MRSA NRS-123, USA400). Particulars: read-out: MIC MRSA NRS123 (USA400).
Excerpt: as §1, §2

The test system of experiment [7] is Methicillin-resistant Staphylococcus aureus (MRSA NRS-119). Particulars: read-out: MIC MRSA NRS119.
Excerpt: as §1, §2

For the compound `CC(=O)NC[C@H]1CN(c2ccc(N3CCOCC3)c(F)c2)C(=O)O1` [Linezolid, reference compound], the minimal inhibitory concentration (MIC) in experiment [1], in experiment [2], in experiment [3], in experiment [4], in experiment [5] and in experiment [6] was 1 µg/mL throughout. The MIC (usually the lowest concentration found to suppress growth) in experiment [7] was 64 µg/mL.
With `O=C(Nc1cccc(Nc2ccc(Cl)nn2)c1)Nc1ccc(Cl)c(Cl)c1` [MY14, 1-(3-((6-chloropyridazin-3-yl)amino)phenyl)-3-(3,4-dichlorophenyl)urea], the minimum inhibitory concentration (MIC) in experiment [1] was 4 µg/mL; in experiment [2], 32 µg/mL; in experiment [3] it was 4 µg/mL; in experiment [4] it was 4 µg/mL; in experiment [5] it was 4 µg/mL; in experiment [6], 4 µg/mL. In addition, in experiment [7], the MIC was found to be 4 µg/mL.
With `O=C(Nc1ccc(-c2ccc(=O)[nH]n2)cc1)Nc1ccc(Cl)c(Cl)c1` [MY21, 1-(3,4-dichlorophenyl)-3-(4-(6-oxo-1,6-dihydropyridazin-3-yl)phenyl)urea], the minimal inhibitory concentration (MIC) came to 1 µg/mL in experiment [1]; 2 µg/mL in experiment [2]; 1 µg/mL in experiment [3]; 2 µg/mL in experiment [4]; 2 µg/mL in experiment [5]; 1 µg/mL in experiment [6]. For the same compound, the minimum inhibitory concentration (MIC) in experiment [7] was determined as 1 µg/mL.
For the compound `O=C(Nc1ccc(Oc2ccc(=O)[nH]n2)cc1)Nc1ccc(Cl)c(Cl)c1` [MY24, 1-(3,4-dichlorophenyl)-3-(4-((6-oxo-1,6-dihydropyridazin-3-yl)oxy)phenyl)urea], the minimal inhibitory concentration (MIC) in experiment [1] worked out at 2 µg/mL; in experiment [2], 4 µg/mL; in experiment [3], 1 µg/mL; in experiment [4] it was 2 µg/mL; in experiment [5], 2 µg/mL; in experiment [6], 1 µg/mL. Moreover, the minimal inhibitory concentration (MIC) in experiment [7] came out at 1 µg/mL.
With `O=C(Nc1ccc(Oc2ccc(=O)[nH]n2)cc1)Nc1ccc(Cl)c(C(F)(F)F)c1` [MY31, 1-(4-chloro-3-(trifluoromethyl)phenyl)-3-(4-((6-oxo-1,6-dihydropyridazin-3-yl)oxy)phenyl)urea], the minimum inhibitory concentration (MIC) was 1 µg/mL in experiment [1]; 1 µg/mL in experiment [2]; 0.5 µg/mL in experiment [3]; 0.5 µg/mL in experiment [4]; 0.5 µg/mL in experiment [5]; 0.5 µg/mL in experiment [6]. For the same compound, in experiment [7], the minimum inhibitory concentration (MIC) amounted to 0.5 µg/mL.
As to `CNC(=O)c1cc(Oc2ccc(NC(=O)Nc3ccc(Cl)c(C(F)(F)F)c3)cc2)ccn1` [Sorafenib, reference compound], the MIC in experiment [1] was 2 µg/mL; in experiment [2] it was > 64 µg/mL; in experiment [3], 8 µg/mL; in experiment [4], 4 µg/mL; in experiment [5] it was 4 µg/mL; in experiment [6], 4 µg/mL. In experiment [7], the minimum inhibitory concentration (MIC) was determined as 2 µg/mL.
Turning to `CN[C@H](CC(C)C)C(=O)N[C@H]1C(=O)N[C@@H](CC(N)=O)C(=O)N[C@H]2C(=O)N[C@H]3C(=O)N[C@H](C(=O)N[C@H](C(=O)O)c4cc(O)cc(O)c4-c4cc3ccc4O)[C@H](O)c3ccc(c(Cl)c3)Oc3cc2cc(c3O[C@@H]2O[C@H](CO)[C@@H](O)[C@H](O)[C@H]2O[C@H]2C[C@](C)(N)[C@H](O)[C@H](C)O2)Oc2ccc(cc2Cl)[C@H]1O` [Vancomycin, reference compound], the minimum inhibitory concentration (MIC) in experiment [1] was 64 µg/mL; in experiment [2] it was > 64 µg/mL; in experiment [3], 2 µg/mL; in experiment [4] it was 1 µg/mL; in experiment [5], 1 µg/mL; in experiment [6] it was 1 µg/mL. In addition, the minimum inhibitory concentration (MIC) in experiment [7] turned out to be 1 µg/mL.
